Assay: Hygroscopicity study as per British Pharmacopoeia method
Format: physicochemical
Procedure: Darunavir Hydrate From C was subjected to hygroscopicity study and the test was performed as per the method given in British Pharmacopoeia.
A weight change of 0.0003 g was observed which correspond to 0.06% weight change. As per the test a sample is of non-hygroscopic nature if the weight change observed is less than 0.2%.

CC(C)CN(C[C@@H](O)[C@H](Cc1ccccc1)NC(=O)O[C@H]1CO[C@H]2OCC[C@H]21)S(=O)(=O)c1ccc(N)cc1 [darunavir hydrate Form C, (3R,3aS,6aR)-hexahydrofuro[2,3-b]furan-3-yl(1S,2R)-3-[[(4-aminophenyl)sulfonyl](isobutyl)amino]-1-benzyl-2-hydroxypropylcarbamate]
hygroscopic nature (non-hygroscopic if weight change less than 0.2%) (25° C. and 85% RH, 24 hours): non-hygroscopic
weight change (57.6456 g exposed at 25° C. and 85% RH for 24 hours): 0.0003 g
weight change (exposed at 25° C. and 85% RH for 24 hours): 0.06%
